Patent US10314851B2, “Metakaryocidal treatments” (Massachusetts Institute of Technology, priority 2014, dated 2019)
Where two headings read alike, the source gives them in different places.

System: HT-29 cells
Description: Applicants next sought means to test nominated drugs (also referred to herein as candidate agents) using human cell cultures, particularly cell cultures derived from human tumors in which they discovered metakaryotic cells driving net growth and differentiation of such cultures by symmetric and asymmetric amitotic divisions.
The metakaryotic and pre-metakaryotic cells of cell lines derived from human tumors are capable of unlimited division when plated as single cells on plastic or glass surfaces. However, most cells in such cell lines are eukaryotic cells capable of limited cell growth which growth cannot give rise to immortal colonies or populations of cells. This quality permits the line to be used in quantitative assays of cell killing important for distinguishing among agents and regimens that kill metakaryotic cells in preference to eukaryotic cells and vice versa.
Single cells betray different fates. […] Applicants interpret these colonies and derived immortal populations to be the descendants of single metakaryotic or pre-metakaryotic stem cells.
Colonies of limited size between 1 and 2^11 cells are interpreted to be the products of growth of transition cell tiers three through eleven.
In this reproducible behavior the human tumor cell lines offered a means to test agents for metakaryocidal activity: metakaryocidal agents and regimens would reduce or eliminate the appearance of large colonies that could be propagated by serial trypsinized transfer. […] An example of this kind of assay is illustrated in FIGS. 1, 2 and 3.
In particular drugs evaluated were reported to overcome “multidrug resistance” giving special priority to drugs that suppressed “multidrug resistance” (MDR).
Shown in FIGS. 1-3 are images of quantitative trials of different regimens (initial concentration, duration of exposure) of metformin in clonal assays using HT-29 cells. […] FIG. 1 is a photograph illustrating the experimental design for testing metformin as a metakaryocide in vitro.
FIG. 2 depicts a table of the recorded colony counts on each of the flasks of the first image.
The Y-axis is the number of colonies on each test flask enumerated in FIG. 2 while the X-axis is the product of metformin concentration (micromolar) times the duration of the HT-29 cells to the drug (weeks).

Row | Compound | metakaryocidal effect (survival vs. concentration x duration function) (tests of some sixteen drugs, compared with metformin) | concentration above which surviving large colonies are not immortal and do not contain metakaryotic stem cells (HT-29, FIG. 1, five weeks) [µM] | concentration x duration of exposure at which elimination of metakaryotic cell-containing immortal colonies is reached (HT-29, FIG. 3) [micromolar-weeks] | concentration x duration of exposure below which killing of mortal colonies is not observed (HT-29, FIG. 3) | survival fraction of the metformin-sensitive population (metakaryotic cells) (HT-29, at ~200 μM weeks) | total large colony numbers reduced to a level less than in untreated control flasks (HT-29, colonies five weeks after seeding, treated from day one for one, two or five weeks, concentration x duration treatments shown with green counts in FIG. 2) | concentration at which surviving large colonies are not immortal and do not contain metakaryotic stem cells (HT-29, five weeks exposure) [µM] | concentration above which surviving large colonies are not immortal and do not contain metakaryotic stem cells (HT-29, one week exposure) [µM] | expected survival of metakaryotic cells (extrapolated from FIG. 3, treatment of ~400 μM weeks)
1 | COC(=O)[C@H]1[C@H]2C[C@@H]3c4[nH]c5cc(OC)ccc5c4CCN3C[C@H]2C[C@@H](OC(=O)c2cc(OC)c(OC)c(OC)c2)[C@@H]1OC [reserpine] | no detectable effect as a metakaryocide | – | – | – | – | – | – | – | –
2 | CN(C)C(=N)N=C(N)N [metformin] | – | > 100 | ~200 | about 2000 micromolar weeks | 10^−2 | about 10% | 800 | > 1600 | 10^−4
